Results taken from US9657071B2, “IgE peptide vaccine” (NIPPON ZENYAKU KOGYO CO., LTD., priority 2012, dated 2017).

Experiments:
[1] = system: Der f 2-specific IgE; test: Prevention experiment in rats: Der f 2-specific IgE (ELISA); assay type: in vivo; details: rat, 50 μg three times, then Der f 2 + alum
Experimental: Der f 2 was prepared at 1 μg/mL in an immobilization buffer (0.05 M carbonate buffer, pH 9.6), then added at a concentration of 100 μL/well to an ELISA plate, and left overnight at 4° C. The immobilization plate was washed once with PBS-T (0.05%). A blocking solution (4× Block Ace, Snow Brand Milk Products Co., Ltd.; UK-B80) was added thereto at a concentration of 200 μL/well. The plate was blocked by incubation at 37° C. for 1.5 hours. The serum was diluted 20-fold with a diluent (PBS-T:Block Ace=9:1) and used. The plate was reacted with the serum at 37° C. for 1.5 hours and washed three times with PBS-T (0.05%). An anti-rat IgE antibody (Rabbit anti-Rat IgE HRP; Invitrogen Corp., 61-9520) was diluted 1000-fold with a diluent and added thereto as a secondary antibody at a concentration of 100 μL/well. After reaction at 37° C. for 1.5 hours, the plate was washed three times with PBS-T (0.05%). […] Then, the measurement was performed using a plate reader (Bio-Rad Laboratories, Inc.; model 680) (dual: measurement: 450 nm, control: 570 nm). […]
Blood was collected every 2 weeks from the administer start date. […] Serum was collected, and an IgG antibody against dog IgE was evaluated by ELISA (FIG. 16). […]

[2] = system: anti-dog IgE monoclonal antibodies; test: Epitope analysis of synthetic IgE CH3 region peptides by ELISA; assay type: binding; details: peptide immobilized 100 ng/well, ELISA with anti-IgE monoclonal antibodies
Experimental: Epitope analysis was conducted on mouse monoclonal antibodies binding to a dog IgE antibody and rat monoclonal antibodies binding to dog and mouse IgE antibodies. Mouse anti-dog IgE antibodies (clone name: CCH3-4, CCH5-5, CCH3-12, CCH3-13, CCH3-14, and CCH3-15) were prepared from mice immunized with the dog IgE CH3 (Cε3) region gene. Also, anti-IgE monoclonal antibodies (clone name: X-1, X-2, CCH3-21, and CCH3-22) were prepared from rats immunized with the dog and mouse IgE CH3 (Cε3) region genes. These antibodies were used as samples to synthesize synthetic peptides (SEQ ID NOs: 2 to 20 and 22 to 26) of the dog and mouse IgE peptide CH3 (Cε3) regions consisting of the sequences shown in FIG. 1-1. The epitope analysis was conducted by ELISA. […] The anti-dog IgE monoclonal antibodies that responded to the peptide were detected using secondary antibodies (anti-mouse IgG HRP (horseradish peroxidase)-labeled antibody for the anti-dog IgE antibodies prepared using mice, and anti-rat IgG HRP-labeled antibody for the anti-dog IgE antibodies prepared using rats).

Row | Sequence | Der f 2-specific IgE production compared with the control group (saline) ([1]; intravenous) | Der f 2-specific IgE production compared with the control group (saline) ([1]; subcutaneous (group 2)) | epitope in IgE CH3 region peptide [2]
1 | KKTSVSASQWYTKHHNNATT (listed as Mus musculus) [M4-7-11] | inhibition of IgE production was confirmed | inhibition of IgE production was remarkably confirmed | –
2 | QEKKTSVSASQWYTKHHNNATTSIT (listed as Mus musculus) [MOUSE CH3-4-17-11] | – | – | peptide of an epitope region
